“And” between values parts separate entries of the source, which are not always exact repeats. Equal entries are not always repeated.
Tested on: 439559-082-T-J2-PDC complex spheroid growth
Test: Anticancer human tumor 439559-082-T-J2-PDC patient-derived colon adenocarcinoma cell line growth inhibition [Asc]
Conditions: for viability, T/C: stronger effect = lower value
Outline: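 Tumor cells were grown as complex spheroids with human endothelial cells (HUVEC) and human mesenchymal stem cells as stroma. Agents were tested alone and in combination, in half-log steps down from the clinical Cmax, or from 10 microM where Cmax was unknown.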

[1] = curve of first compound, second compound 0.1 µM
[2] = curve of first compound, second compound 0.316 µM
[3] = curve of first compound, second compound 1 µM
[4] = second compound 0.1 µM, first compound 0.00316 µM
[5] = second compound 0.1 µM, first compound 0.01 µM
[6] = second compound 0.1 µM, first compound 0.0316 µM
[7] = second compound 0.1 µM, first compound 0.1 µM
[8] = second compound 0.1 µM, first compound 0.316 µM
[9] = second compound 0.1 µM, first compound 1 µM
[10] = second compound 0.316 µM, first compound 0.00316 µM
[11] = second compound 0.316 µM, first compound 0.01 µM
[12] = second compound 0.316 µM, first compound 0.0316 µM
[13] = second compound 0.316 µM, first compound 0.1 µM
[14] = second compound 0.316 µM, first compound 0.316 µM
[15] = second compound 0.316 µM, first compound 1 µM
[16] = second compound 1 µM, first compound 0.00316 µM
[17] = second compound 1 µM, first compound 0.01 µM
[18] = second compound 1 µM, first compound 0.0316 µM
[19] = second compound 1 µM, first compound 0.1 µM
[20] = second compound 1 µM, first compound 0.316 µM
[21] = second compound 1 µM, first compound 1 µM
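Note: spheroids exposed to agents for 7 days starting day 3 after seeding.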
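Throughout, for viability, T/C: percent of DMSO vehicle control viability with 100% = vehicle.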

With O=C(c1ccc(F)c(F)c1Nc1ccc(I)cc1F)N1CC(O)([C@@H]2CCCCN2)C1 + CCN1C(C(=O)NC23CCC(C(=O)O)(CC2)CC3)C(c2cccc(Cl)c2F)C2(C(=O)Nc3cc(Cl)ccc32)C12CCCCC2 the IC50 (curve of first compound, second compound 0.03 µM) was 223 nM, the IC50 (curve of first compound, second compound 0.0949 µM) was 233 nM and the IC50 (curve of first compound, second compound 0.3 µM) was 235 nM. For the same compound, the IC50 (curve of first compound, second compound 0.949 µM) was 172 nM, the IC50 (curve of first compound, second compound 3 µM) was 97.6 nM and the viability, T/C (second compound 0.03 µM, first compound 0.00316 µM) was 103%. It also gave a viability, T/C (second compound 0.03 µM, first compound 0.01 µM) of 101%, a viability, T/C (second compound 0.03 µM, first compound 0.0316 µM) of 83.8% and a viability, T/C (second compound 0.03 µM, first compound 0.1 µM) of 61.6%. For the same compound, the viability, T/C (second compound 0.03 µM, first compound 0.316 µM) was 46.9%, the viability, T/C (second compound 0.03 µM, first compound 1 µM) was 22.5% and the viability, T/C (second compound 0.0949 µM, first compound 0.00316 µM) was 111%. It also gave a viability, T/C (second compound 0.0949 µM, first compound 0.01 µM) of 106%, a viability, T/C (second compound 0.0949 µM, first compound 0.0316 µM) of 84.8% and a viability, T/C (second compound 0.0949 µM, first compound 0.1 µM) of 58.2%. The viability, T/C (second compound 0.0949 µM, first compound 0.316 µM) was 52.6%, the viability, T/C (second compound 0.0949 µM, first compound 1 µM) was 16.3% and the viability, T/C (second compound 0.3 µM, first compound 0.00316 µM) was 98.7%. It also gave a viability, T/C (second compound 0.3 µM, first compound 0.01 µM) of 110%, a viability, T/C (second compound 0.3 µM, first compound 0.0316 µM) of 91.7% and a viability, T/C (second compound 0.3 µM, first compound 0.1 µM) of 64.3%. It also gave a viability, T/C (second compound 0.3 µM, first compound 0.316 µM) of 47.2%, a viability, T/C (second compound 0.3 µM, first compound 1 µM) of 8.43% and a viability, T/C (second compound 0.949 µM, first compound 0.00316 µM) of 111%. It also gave a viability, T/C (second compound 0.949 µM, first compound 0.01 µM) of 93.5%, a viability, T/C (second compound 0.949 µM, first compound 0.0316 µM) of 88.4% and a viability, T/C (second compound 0.949 µM, first compound 0.1 µM) of 54.5%. It also gave a viability, T/C (second compound 0.949 µM, first compound 0.316 µM) of 41.1%, a viability, T/C (second compound 0.949 µM, first compound 1 µM) of 16.2% and a viability, T/C (second compound 3 µM, first compound 0.00316 µM) of 96.8%. The viability, T/C (second compound 3 µM, first compound 0.01 µM) was 81.7%, the viability, T/C (second compound 3 µM, first compound 0.0316 µM) was 78.1% and the viability, T/C (second compound 3 µM, first compound 0.1 µM) was 47%. The viability, T/C (second compound 3 µM, first compound 0.316 µM) was 27% and the viability, T/C (second compound 3 µM, first compound 1 µM) was 12.2%.
With COc1c(OCCCN2CCOCC2)ccc2c3n(c(=NC(=O)c4cnc(N)nc4)nc12)CCN3 + CNC(C)C(=O)NC1CN(S(=O)(=O)c2cccc(S(=O)(=O)N3CCC4CCC(C(=O)NC(c5ccccc5)c5ccccc5)N4C(=O)C(NC(=O)C(C)NC)C3)c2)CCC2CCC(C(=O)NC(c3ccccc3)c3ccccc3)N2C1=O the IC50 (curve of first compound, second compound 0.00316 µM) was > 1000 nM, the IC50 (curve of first compound, second compound 0.01 µM) was > 1000 nM and the IC50 (curve of first compound, second compound 0.0316 µM) was > 1000 nM. For the same compound, the IC50 [1] was > 1000 nM, the IC50 [2] was > 1000 nM and the IC50 [3] was 380 nM. For the same compound, the viability, T/C (second compound 0.00316 µM, first compound 0.00316 µM) was 100%, the viability, T/C (second compound 0.00316 µM, first compound 0.01 µM) was 95.2% and the viability, T/C (second compound 0.00316 µM, first compound 0.0316 µM) was 98.9%. For the same compound, the viability, T/C (second compound 0.00316 µM, first compound 0.1 µM) was 80.8%, the viability, T/C (second compound 0.00316 µM, first compound 0.316 µM) was 72.6% and the viability, T/C (second compound 0.00316 µM, first compound 1 µM) was 64.7%. The viability, T/C (second compound 0.01 µM, first compound 0.00316 µM) was 102%, the viability, T/C (second compound 0.01 µM, first compound 0.01 µM) was 88.6% and the viability, T/C (second compound 0.01 µM, first compound 0.0316 µM) was 99.1%. The viability, T/C (second compound 0.01 µM, first compound 0.1 µM) was 84.5%, the viability, T/C (second compound 0.01 µM, first compound 0.316 µM) was 73.8% and the viability, T/C (second compound 0.01 µM, first compound 1 µM) was 63.4%. It also gave a viability, T/C (second compound 0.0316 µM, first compound 0.00316 µM) of 93.2%, a viability, T/C (second compound 0.0316 µM, first compound 0.01 µM) of 98.8% and a viability, T/C (second compound 0.0316 µM, first compound 0.0316 µM) of 92.5%. For the same compound, the viability, T/C (second compound 0.0316 µM, first compound 0.1 µM) was 77.4%, the viability, T/C (second compound 0.0316 µM, first compound 0.316 µM) was 81.5% and the viability, T/C (second compound 0.0316 µM, first compound 1 µM) was 71.2%. The viability, T/C [4] was 96.2%, the viability, T/C [5] was 109% and the viability, T/C [6] was 82.2%. For the same compound, the viability, T/C [7] was 78.9%, the viability, T/C [8] was 70.5% and the viability, T/C [9] was 62.6%. It also gave a viability, T/C [10] of 94.9%, a viability, T/C [11] of 89% and a viability, T/C [12] of 85.1%. The viability, T/C [13] was 66.3%, the viability, T/C [14] was 61.3% and the viability, T/C [15] was 58.6%. For the same compound, the viability, T/C [16] was 80.8%, the viability, T/C [17] was 74.5% and the viability, T/C [18] was 65.6%. For the same compound, the viability, T/C [19] was 53.1%, the viability, T/C [20] was 53.8% and the viability, T/C [21] was 44.8%.
With COc1c(OCCCN2CCOCC2)ccc2c3n(c(=NC(=O)c4cnc(N)nc4)nc12)CCN3 + Cc1c(S(C)(=O)=O)c(-c2cc(F)cc(N3CCN(c4ccc(NS(=O)(=O)c5ccc(NC(CCN6CCC(C(=O)OCCCP(=O)(O)O)CC6)CSc6ccccc6)c(S(=O)(=O)C(F)(F)F)c5)cc4)CC3)c2)c(-c2ccc(Cl)cc2)n1C(C)C the IC50 [1] was > 1000 nM, the IC50 [2] was > 1000 nM and the IC50 [3] was > 1000 nM. For the same compound, the IC50 (curve of first compound, second compound 3.16 µM) was 312 nM, the IC50 (curve of first compound, second compound 10 µM) was 101 nM and the viability, T/C [4] was 97.8%. It also gave a viability, T/C [5] of 98.6%, a viability, T/C [6] of 85.8% and a viability, T/C [7] of 63.8%. The viability, T/C [8] was 67.1%, the viability, T/C [9] was 55% and the viability, T/C [10] was 95.9%. It also gave a viability, T/C [11] of 97.9%, a viability, T/C [12] of 90.8% and a viability, T/C [13] of 63.4%. It also gave a viability, T/C [14] of 62%, a viability, T/C [15] of 54.1% and a viability, T/C [16] of 90.2%. It also gave a viability, T/C [17] of 89.7%, a viability, T/C [18] of 82.6% and a viability, T/C [19] of 64.6%. For the same compound, the viability, T/C [20] was 59%, the viability, T/C [21] was 49.7% and the viability, T/C (second compound 3.16 µM, first compound 0.00316 µM) was 85.6%. The viability, T/C (second compound 3.16 µM, first compound 0.01 µM) was 84.8%, the viability, T/C (second compound 3.16 µM, first compound 0.0316 µM) was 79.9% and the viability, T/C (second compound 3.16 µM, first compound 0.1 µM) was 59.5%. It also gave a viability, T/C (second compound 3.16 µM, first compound 0.316 µM) of 50.8%, a viability, T/C (second compound 3.16 µM, first compound 1 µM) of 48% and a viability, T/C (second compound 10 µM, first compound 0.00316 µM) of 69%. For the same compound, the viability, T/C (second compound 10 µM, first compound 0.01 µM) was 84.7%, the viability, T/C (second compound 10 µM, first compound 0.0316 µM) was 72% and the viability, T/C (second compound 10 µM, first compound 0.1 µM) was 50.4%. It also gave a viability, T/C (second compound 10 µM, first compound 0.316 µM) of 36.9% and a viability, T/C (second compound 10 µM, first compound 1 µM) of 37.2%.
For O=C(c1cc(Cc2n[nH]c(=O)c3ccccc23)ccc1F)N1CCN(C(=O)C2CC2)CC1, the viability, T/C (compound 0.0316 µM) was 98.8% and 105% and 96.8%, the viability, T/C (compound 0.1 µM) was 111% and 109% and 90.9% and the viability, T/C (compound 0.316 µM) was 99.9% and 95% and 96.8%. The viability, T/C (compound 1 µM) was 101% and 97.8% and 111%, the viability, T/C (compound 3.16 µM) was 105% and 104% and 106% and the viability, T/C (compound 10 µM) was 102% and 100% and 83.9%. For the same compound, the IC50 (curve of compound) was > 10000 nM.
For NC1CCC(NC2CC2c2ccccc2)CC1 (stereo unspecified), the viability, T/C (compound 0.000316 µM) was 106% and 107% and 103%, the viability, T/C (compound 0.001 µM) was 119% and 117% and 92.5% and the viability, T/C (compound 0.00316 µM) was 112% and 106% and 107%. For the same compound, the viability, T/C (compound 0.01 µM) was 114% and 108% and 92.8%, the viability, T/C (compound 0.0316 µM) was 109% and 103% and 96% and the viability, T/C (compound 0.1 µM) was 112% and 106% and 95.2%. The IC50 (curve of compound) was > 100 nM.

Source: PubChem BioAssay AID1963423 (Molecular Pharmacology Branch, DTP, NCI, 2024)
